Measurements published in US9168229B2, “Soft gelatin capsules” (ALTERGON S.A., priority 2005, dated 2015).

Assay: Solubility of cyclodextrins in an aqueous gelatin/glycerin solution
Assay type: physicochemical
Procedure: The solubility of β-, γ and hydroxypropyl-β-(HPβ) cyclodextrin in the solution containing gelatin was verified. This study was conducted by dissolving quantities of 2.5% or of 5% (W/V) of β-, γ or hydroxypropyl-β-(HPβ) cyclodextrin in an aqueous solution containing 36% (W/W) of gelatin and 15% (W/W) of anhydrous glycerin.

[1] = 5% (W/V) cyclodextrin in aqueous solution containing 36% (W/W) gelatin and 15% (W/W) anhydrous glycerin

Row | solubility in the solution containing gelatin (2.5% (W/V) cyclodextrin in aqueous solution containing 36% (W/W) gelatin and 15% (W/W) anhydrous glycerin) | solubility in the solution containing gelatin [1] | Compound
1 | soluble | opalescent mixture | OC[C@H]1O[C@@H]2O[C@H]3[C@H](O)[C@@H](O)[C@@H](O[C@H]4[C@H](O)[C@@H](O)[C@@H](O[C@H]5[C@H](O)[C@@H](O)[C@@H](O[C@H]6[C@H](O)[C@@H](O)[C@@H](O[C@H]7[C@H](O)[C@@H](O)[C@@H](O[C@H]8[C@H](O)[C@@H](O)[C@@H](O[C@H]1[C@H](O)[C@H]2O)O[C@@H]8CO)O[C@@H]7CO)O[C@@H]6CO)O[C@@H]5CO)O[C@@H]4CO)O[C@@H]3CO [β-cyclodextrin]
2 | – | soluble | OC[C@H]1O[C@@H]2O[C@H]3[C@H](O)[C@@H](O)[C@@H](O[C@H]4[C@H](O)[C@@H](O)[C@@H](O[C@H]5[C@H](O)[C@@H](O)[C@@H](O[C@H]6[C@H](O)[C@@H](O)[C@@H](O[C@H]7[C@H](O)[C@@H](O)[C@@H](O[C@H]8[C@H](O)[C@@H](O)[C@@H](O[C@H]9[C@H](O)[C@@H](O)[C@@H](O[C@H]1[C@H](O)[C@H]2O)O[C@@H]9CO)O[C@@H]8CO)O[C@@H]7CO)O[C@@H]6CO)O[C@@H]5CO)O[C@@H]4CO)O[C@@H]3CO [γ-cyclodextrin]
3 | – | soluble | hydroxypropyl-β-cyclodextrin
